Our source for the AC50 values is ChEMBL document CHEMBL5291721, “A preclinical secondary pharmacology resource illuminates target-adverse drug reaction associations of marketed drugs” (Nat Commun, 2023).

Structures are written as SMILES.

For assay [1], the target named is Sodium-dependent noradrenaline transporter (Homo sapiens, UniProt P23975).
For assay [2], the target named is Vasopressin V1a receptor (Homo sapiens, UniProt P37288).
Assay [3] concerns the target T1, Type-1 angiotensin II receptor (Homo sapiens, UniProt P30556).
T1 sequence (P30556 whole entry): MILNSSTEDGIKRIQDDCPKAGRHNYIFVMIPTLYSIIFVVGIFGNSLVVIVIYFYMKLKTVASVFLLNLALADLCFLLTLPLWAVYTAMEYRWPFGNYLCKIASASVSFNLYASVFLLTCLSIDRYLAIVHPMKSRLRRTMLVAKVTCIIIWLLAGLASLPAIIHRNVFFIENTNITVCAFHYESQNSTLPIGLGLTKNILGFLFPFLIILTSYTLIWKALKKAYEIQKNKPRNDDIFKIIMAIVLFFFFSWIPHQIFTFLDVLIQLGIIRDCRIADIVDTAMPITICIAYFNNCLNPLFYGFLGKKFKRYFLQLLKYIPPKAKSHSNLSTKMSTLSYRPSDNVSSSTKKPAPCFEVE

For assay [4], the target named is Cannabinoid receptor 1 (Homo sapiens, UniProt P21554). The format is functional, cell-based.
Sequence of Cannabinoid receptor 1 (P21554 whole entry): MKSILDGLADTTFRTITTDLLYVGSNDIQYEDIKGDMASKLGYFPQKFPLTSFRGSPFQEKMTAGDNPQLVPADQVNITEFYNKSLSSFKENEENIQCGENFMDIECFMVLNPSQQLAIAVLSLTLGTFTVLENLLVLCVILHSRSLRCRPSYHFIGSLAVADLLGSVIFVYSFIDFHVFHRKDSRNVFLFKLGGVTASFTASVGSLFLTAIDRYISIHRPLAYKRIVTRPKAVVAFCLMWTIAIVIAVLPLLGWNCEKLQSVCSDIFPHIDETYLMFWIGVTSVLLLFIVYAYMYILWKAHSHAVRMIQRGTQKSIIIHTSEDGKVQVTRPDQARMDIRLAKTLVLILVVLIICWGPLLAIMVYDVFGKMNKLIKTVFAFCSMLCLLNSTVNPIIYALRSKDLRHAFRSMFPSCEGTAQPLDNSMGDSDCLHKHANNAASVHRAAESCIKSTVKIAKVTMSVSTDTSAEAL
Assay [5] addresses 5-hydroxytryptamine receptor 2B (Homo sapiens, UniProt P41595). The format is functional, cell-based.
For assay [6], the target named is T2, Gastrin/cholecystokinin type B receptor (Homo sapiens, UniProt P32239).
T2 sequence (P32239 whole entry): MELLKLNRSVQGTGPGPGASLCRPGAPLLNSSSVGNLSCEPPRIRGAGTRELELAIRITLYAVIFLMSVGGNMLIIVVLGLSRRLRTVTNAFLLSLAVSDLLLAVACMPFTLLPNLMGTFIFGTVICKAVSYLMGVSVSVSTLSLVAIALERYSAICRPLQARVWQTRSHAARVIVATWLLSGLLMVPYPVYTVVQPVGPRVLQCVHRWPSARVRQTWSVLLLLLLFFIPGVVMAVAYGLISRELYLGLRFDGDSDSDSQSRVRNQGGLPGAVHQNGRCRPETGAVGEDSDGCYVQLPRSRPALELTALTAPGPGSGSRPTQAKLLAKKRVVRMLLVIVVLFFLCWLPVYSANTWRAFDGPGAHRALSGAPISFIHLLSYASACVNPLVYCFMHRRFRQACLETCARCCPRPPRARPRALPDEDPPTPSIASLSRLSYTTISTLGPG

Assay [7] has as its target T3, Progesterone receptor (Homo sapiens, UniProt P06401).
T3 sequence (P06401 whole entry): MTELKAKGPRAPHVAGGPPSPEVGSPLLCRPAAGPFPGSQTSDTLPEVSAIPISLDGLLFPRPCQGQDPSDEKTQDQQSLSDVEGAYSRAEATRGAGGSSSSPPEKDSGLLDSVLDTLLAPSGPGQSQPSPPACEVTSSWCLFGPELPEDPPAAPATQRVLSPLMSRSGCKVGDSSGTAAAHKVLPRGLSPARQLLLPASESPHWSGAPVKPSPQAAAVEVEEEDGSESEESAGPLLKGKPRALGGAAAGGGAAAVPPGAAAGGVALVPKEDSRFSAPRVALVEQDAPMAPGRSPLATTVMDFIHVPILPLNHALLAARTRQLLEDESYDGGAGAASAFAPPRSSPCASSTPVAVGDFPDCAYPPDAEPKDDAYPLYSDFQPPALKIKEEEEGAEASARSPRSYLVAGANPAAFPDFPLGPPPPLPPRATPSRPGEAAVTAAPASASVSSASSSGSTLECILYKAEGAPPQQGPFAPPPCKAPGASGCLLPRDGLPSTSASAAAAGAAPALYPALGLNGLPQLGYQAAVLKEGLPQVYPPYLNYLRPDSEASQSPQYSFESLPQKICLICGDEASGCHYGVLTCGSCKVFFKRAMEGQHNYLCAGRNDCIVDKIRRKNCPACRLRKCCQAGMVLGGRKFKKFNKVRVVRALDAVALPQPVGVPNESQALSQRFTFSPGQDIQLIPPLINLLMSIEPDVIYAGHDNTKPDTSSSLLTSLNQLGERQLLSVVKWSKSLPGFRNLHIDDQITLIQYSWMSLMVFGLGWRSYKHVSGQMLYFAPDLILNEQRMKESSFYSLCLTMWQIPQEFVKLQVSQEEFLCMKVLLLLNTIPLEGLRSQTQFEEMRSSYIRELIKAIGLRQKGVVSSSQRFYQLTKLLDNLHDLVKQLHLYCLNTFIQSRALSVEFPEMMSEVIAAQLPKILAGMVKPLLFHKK
The format is functional.

In assay [8] the target is 5-hydroxytryptamine receptor 2A (Homo sapiens, UniProt P28223). The format is functional, cell-based.
Sequence of 5-hydroxytryptamine receptor 2A (P28223 whole entry): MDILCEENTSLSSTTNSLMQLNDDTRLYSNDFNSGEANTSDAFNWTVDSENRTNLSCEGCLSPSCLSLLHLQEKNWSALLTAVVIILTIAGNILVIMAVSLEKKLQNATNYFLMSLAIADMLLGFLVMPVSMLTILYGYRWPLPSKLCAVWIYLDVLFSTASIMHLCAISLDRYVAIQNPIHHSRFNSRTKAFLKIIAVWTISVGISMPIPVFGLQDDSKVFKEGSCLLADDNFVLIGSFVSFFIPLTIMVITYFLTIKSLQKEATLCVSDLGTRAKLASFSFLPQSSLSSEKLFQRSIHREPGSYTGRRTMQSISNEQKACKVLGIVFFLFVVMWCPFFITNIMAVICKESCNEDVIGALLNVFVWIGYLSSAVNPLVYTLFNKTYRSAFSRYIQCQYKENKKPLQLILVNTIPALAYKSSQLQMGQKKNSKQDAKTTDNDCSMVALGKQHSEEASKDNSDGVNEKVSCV
The target in assay [9] is Growth hormone secretagogue receptor type 1 (Homo sapiens, UniProt Q92847).
Sequence of Growth hormone secretagogue receptor type 1 (Q92847 whole entry): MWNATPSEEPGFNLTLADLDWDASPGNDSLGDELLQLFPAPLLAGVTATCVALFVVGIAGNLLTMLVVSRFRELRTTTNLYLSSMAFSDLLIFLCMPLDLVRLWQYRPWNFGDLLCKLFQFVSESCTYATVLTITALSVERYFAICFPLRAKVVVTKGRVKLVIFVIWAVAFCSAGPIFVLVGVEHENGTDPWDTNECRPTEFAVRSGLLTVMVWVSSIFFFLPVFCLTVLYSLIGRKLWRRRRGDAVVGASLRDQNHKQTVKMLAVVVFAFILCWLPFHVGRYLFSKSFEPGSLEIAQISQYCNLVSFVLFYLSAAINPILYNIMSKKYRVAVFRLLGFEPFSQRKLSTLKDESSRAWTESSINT
Assay [10] concerns the target T4, Thromboxane A2 receptor (Homo sapiens, UniProt P21731).
T4 sequence (P21731 whole entry): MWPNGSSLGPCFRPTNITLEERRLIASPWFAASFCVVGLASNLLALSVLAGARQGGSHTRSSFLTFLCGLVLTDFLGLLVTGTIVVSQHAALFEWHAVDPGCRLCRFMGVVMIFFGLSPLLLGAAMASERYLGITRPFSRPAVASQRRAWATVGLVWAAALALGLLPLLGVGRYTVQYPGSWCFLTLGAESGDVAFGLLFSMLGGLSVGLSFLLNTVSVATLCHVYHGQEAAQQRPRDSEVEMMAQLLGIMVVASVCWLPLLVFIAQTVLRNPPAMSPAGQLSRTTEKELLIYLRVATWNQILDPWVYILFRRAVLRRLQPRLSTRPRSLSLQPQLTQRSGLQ

Assay [11] addresses D(3) dopamine receptor (Homo sapiens, UniProt P35462).
In assay [12] the target is Melanocortin receptor 3 (Homo sapiens, UniProt P41968).
Sequence of Melanocortin receptor 3 (P41968 whole entry): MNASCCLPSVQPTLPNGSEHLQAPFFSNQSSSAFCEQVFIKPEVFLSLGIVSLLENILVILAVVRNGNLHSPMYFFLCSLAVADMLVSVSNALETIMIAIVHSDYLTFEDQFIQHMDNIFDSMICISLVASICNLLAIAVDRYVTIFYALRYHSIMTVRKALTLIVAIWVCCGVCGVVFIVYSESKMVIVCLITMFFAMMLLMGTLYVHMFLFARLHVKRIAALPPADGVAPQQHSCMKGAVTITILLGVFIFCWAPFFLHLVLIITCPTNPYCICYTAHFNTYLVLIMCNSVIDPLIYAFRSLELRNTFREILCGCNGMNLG
Further: assay procedure not described here.

Sequence of Sodium-dependent noradrenaline transporter (P23975 whole entry): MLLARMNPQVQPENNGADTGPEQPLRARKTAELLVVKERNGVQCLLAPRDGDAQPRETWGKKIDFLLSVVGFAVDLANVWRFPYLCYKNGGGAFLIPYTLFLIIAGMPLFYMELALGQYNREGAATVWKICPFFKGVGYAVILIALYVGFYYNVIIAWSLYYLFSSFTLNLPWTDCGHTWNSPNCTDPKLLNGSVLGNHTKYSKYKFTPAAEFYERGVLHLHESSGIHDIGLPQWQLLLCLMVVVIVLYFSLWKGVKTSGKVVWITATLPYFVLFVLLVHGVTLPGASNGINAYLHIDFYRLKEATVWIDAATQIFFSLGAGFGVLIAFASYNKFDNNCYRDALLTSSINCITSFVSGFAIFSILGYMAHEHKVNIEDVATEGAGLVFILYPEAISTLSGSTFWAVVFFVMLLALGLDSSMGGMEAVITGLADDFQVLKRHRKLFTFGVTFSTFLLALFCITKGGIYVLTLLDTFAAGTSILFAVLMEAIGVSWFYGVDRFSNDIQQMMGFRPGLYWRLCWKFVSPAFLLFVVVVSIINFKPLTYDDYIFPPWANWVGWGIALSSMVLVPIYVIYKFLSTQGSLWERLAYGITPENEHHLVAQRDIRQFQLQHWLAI
Sequence of Vasopressin V1a receptor (P37288 whole entry): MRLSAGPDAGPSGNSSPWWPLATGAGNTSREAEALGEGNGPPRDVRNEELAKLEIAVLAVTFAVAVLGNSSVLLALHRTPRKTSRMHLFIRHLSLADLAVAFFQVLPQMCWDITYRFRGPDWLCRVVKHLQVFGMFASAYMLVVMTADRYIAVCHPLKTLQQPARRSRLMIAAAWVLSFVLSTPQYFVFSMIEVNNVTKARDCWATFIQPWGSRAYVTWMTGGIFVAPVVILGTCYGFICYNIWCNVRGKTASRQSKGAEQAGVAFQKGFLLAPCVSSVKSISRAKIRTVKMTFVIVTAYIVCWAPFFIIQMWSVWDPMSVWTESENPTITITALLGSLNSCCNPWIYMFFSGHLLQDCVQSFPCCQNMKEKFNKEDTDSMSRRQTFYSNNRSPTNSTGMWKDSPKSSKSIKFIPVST
Sequence of 5-hydroxytryptamine receptor 2B (P41595 whole entry): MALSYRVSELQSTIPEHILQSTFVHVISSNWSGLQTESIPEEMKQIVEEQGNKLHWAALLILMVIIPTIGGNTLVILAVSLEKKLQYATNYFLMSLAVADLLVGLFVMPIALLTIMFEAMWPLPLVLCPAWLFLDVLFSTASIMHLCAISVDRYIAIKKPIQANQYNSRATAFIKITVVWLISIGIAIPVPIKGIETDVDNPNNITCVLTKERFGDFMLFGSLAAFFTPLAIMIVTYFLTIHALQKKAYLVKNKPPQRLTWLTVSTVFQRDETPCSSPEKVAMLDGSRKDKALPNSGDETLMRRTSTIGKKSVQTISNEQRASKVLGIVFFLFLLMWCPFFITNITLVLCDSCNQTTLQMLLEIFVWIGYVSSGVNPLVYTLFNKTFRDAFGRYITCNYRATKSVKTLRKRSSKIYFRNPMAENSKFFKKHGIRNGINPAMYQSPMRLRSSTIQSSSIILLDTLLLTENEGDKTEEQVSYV
Sequence of D(3) dopamine receptor (P35462 whole entry): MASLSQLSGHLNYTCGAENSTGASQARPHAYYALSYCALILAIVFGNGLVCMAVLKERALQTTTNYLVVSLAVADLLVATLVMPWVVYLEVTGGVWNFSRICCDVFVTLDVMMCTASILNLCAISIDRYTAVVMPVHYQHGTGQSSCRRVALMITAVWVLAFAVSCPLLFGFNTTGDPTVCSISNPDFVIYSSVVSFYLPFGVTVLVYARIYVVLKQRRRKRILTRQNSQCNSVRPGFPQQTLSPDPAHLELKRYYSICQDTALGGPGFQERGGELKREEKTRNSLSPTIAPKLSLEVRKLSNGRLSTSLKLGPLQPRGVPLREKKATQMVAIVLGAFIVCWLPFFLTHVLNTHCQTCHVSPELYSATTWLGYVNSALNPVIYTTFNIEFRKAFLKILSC

On to `O=C(C[S+]([O-])C(c1ccccc1)c1ccccc1)NO` (configuration not stated), for which the concentration at half-maximal activity (AC50) in [1], in [2], in assay [3], in [4], in assay [5] and in assay [6] was above 30 µM in each case. In addition, the AC50 in assay [7], in assay [8], in assay [9], in [10], in assay [11] and in assay [12] was above 30 µM throughout.

For the compound `C=C1CC[C@@]2(O)[C@H]3Cc4ccc(O)c5c4[C@@]2(CCN3CC2CC2)[C@H]1O5`, the AC50 in assay [1], in assay [2], in assay [3], in assay [4], in [5] and in assay [6] was above 30 µM in each case. The half-maximal activity concentration (AC50) in assay [7], in assay [8], in assay [9], in [10], in [11] and in [12] was above 30 µM throughout.

For the compound `Nc1ncnc2c1ncn2[C@@H]1O[C@H](COP(=O)(O)O)[C@@H](O)[C@H]1O` [ADENOSINE PHOSPHATE], the AC50 in assay [1], in assay [2], in [3], in assay [4], in assay [5] and in assay [6] was above 30 µM in each case. The AC50 in assay [7], in [8], in [9], in assay [10], in assay [11] and in assay [12] was above 30 µM throughout.

`CCCC(CCC)C(=O)O[C@H]1C[C@H]2CC[C@@H](C1)[N+]2(C)C` [ANISOTROPINE]: the AC50 in assay [2], in assay [3], in assay [4], in [5], in assay [6] and in assay [7] was above 30 µM in each case. The AC50 in [8], in assay [9], in [10], in [11] and in assay [12] was above 30 µM in each case.

For the compound `CCC(C(=O)O)c1ccc(CC(C)C)cc1` (configuration not stated) [BUTIBUFEN], the AC50 in [1], in [2], in [3], in assay [4], in assay [5] and in [6] was above 30 µM each time. Also, the AC50 in assay [7], in assay [8], in [9], in [10], in assay [11] and in [12] was above 30 µM each time.

With `CCOC(=O)[C@H](CCc1ccccc1)N[C@H]1CCCN2CCC[C@@H](C(=O)O)N2C1=O` [CILAZAPRIL], the AC50 in assay [1], in [2], in assay [3], in [4], in assay [5] and in [6] was above 30 µM each time. The AC50 in assay [7], in assay [8], in assay [9], in [10], in assay [11] and in [12] was above 30 µM throughout.

With `COC(=O)[C@H]1[C@@H](OC(=O)c2ccccc2)C[C@@H]2CC[C@H]1N2C` [COCAINE], the AC50 in [2], in assay [3], in assay [4], in assay [5], in [6] and in assay [7] was above 30 µM throughout. Also, the AC50 in assay [8], in [9], in assay [10], in assay [11] and in assay [12] was above 30 µM each time.

Turning to `CCCCCCCCCCCC[N+](C)(C)CCOc1ccccc1` [DOMIPHEN], the AC50 – broadly, the concentration giving half of the maximal activity seen – is 1.4 µM in assay [1]; 11 µM in assay [2]; 14 µM in [3]; above 30 µM in [4]; 11 µM in [5]; above 10 µM in assay [6]. Also, the concentration at half-maximal activity (AC50) was above 30 µM in assay [7]; 0.94 µM in assay [8]; 5.7 µM in [9]; above 30 µM in assay [10]; 2.1 µM in [11].

Take `O=C1CN=C(c2ccccc2)c2cc(Cl)ccc2N1CC(F)(F)F` [HALAZEPAM]: the AC50 in assay [1], in assay [2], in assay [3], in assay [4], in [5] and in [6] was above 30 µM throughout. The AC50 in assay [7], in assay [8], in assay [9], in assay [11] and in assay [12] was above 30 µM throughout.

On to `C[C@H]1C[C@@H]2[C@H]([C@@H](O)C[C@@]3(C)[C@H]2CC[C@]3(O)C(=O)COC(=O)CCC(=O)O)[C@@]2(C)C=CC(=O)C=C12` [METHYLPREDNISOLONE HEMISUCCINATE], for which the concentration at half-maximal activity (AC50) in [1], in assay [2], in assay [3], in [4], in assay [5] and in assay [6] was above 30 µM each time. The AC50 in assay [7], in assay [8], in assay [9], in [11] and in assay [12] was above 30 µM in each case.

With `CCCCCCC(C)(C)c1cc(O)c2c(c1)OC(C)(C)C1CCC(=O)CC21` (configuration not stated) [NABILONE], the AC50 in [1] is above 30 µM; in assay [2], above 30 µM; in assay [3], above 30 µM; in [4] it was 0.168 µM; in [5], above 30 µM; in [6] it was above 30 µM. Also, the AC50 in assay [7], in assay [8], in assay [9], in assay [11] and in [12] was above 30 µM throughout.

In the case of `Cc1c(Cl)cccc1Nc1ccccc1C(=O)O` [TOLFENAMIC ACID], the AC50 in assay [2] is above 30 µM; in assay [3], above 30 µM; in [4], above 30 µM; in assay [5], above 30 µM; in assay [6], above 10 µM; in assay [7] it was above 30 µM. Also, the AC50 in [8] is 15 µM; in assay [9], above 30 µM; in assay [10], above 30 µM; in [11], above 30 µM; in assay [12] it was above 30 µM.
